COC(=O)[C@H](c1ccccc1Cl)N1CCc2sccc2C1.O=S(=O)(O)O
solubility (mole fraction)
Conditions	273.15 K	278.15 K	283.15 K	288.15 K	293.15 K	298.15 K	303.15 K	308.15 K
in MTBE	6.2e-05	6.5e-05	7.5e-05	8.6e-05	0.000101	0.00011	0.000122	0.000125
in acetone	0.0188	0.0262	0.0339	0.0436	0.0474	0.0567	0.0672	0.076
in ethyl acetate	0.000278	0.000325	0.000342	0.000401	0.000457	0.000511	0.000543	0.000619
in isopropanol	0.00815	0.0113	0.0132	0.0198	0.0237	0.0305	0.0382	0.0463
in methyl acetate	0.000959	0.00103	0.00112	0.00122	0.00133	0.00151	0.00188	0.00214
in n-butanol	0.0502	0.056	0.0655	0.0686	0.0771	0.08	0.0869	0.0952
in sec-butanol	0.00377	0.00528	0.00678	0.00961	0.0127	0.016	0.0191	0.0238
